Assay results published in ChEMBL document CHEMBL1201862, “PubChem BioAssay data set” (2004).
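A five-concentration, 48-hour dose response in 96-well plates underlies each endpoint, interpolated linearly between surrounding concentrations. GI50 is the concentration that inhibits growth by half.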 The source made the active and inactive calls. No stated cut-off is given here; in the data, active = GI50 up to about 1.1 µM and inactive = higher.

How the values were obtained:
Assay in all cases: NCI tumour cell line growth inhibition, 48 h
[1] = system: HL-60
[2] = system: CCRF-CEM
[3] = system: 786-0
[4] = system: UACC-62
[5] = system: MOLT-4
[6] = system: OVCAR-4
[7] = system: OVCAR-5
[8] = system: Malme-3M
[9] = system: TK-10
[10] = system: RXF 393
[11] = system: SR
[12] = system: UACC-257
[13] = system: K562
[14] = system: NCI-H226
[15] = system: MCF7
[16] = system: RPMI-8226
[17] = system: CAKI-1
[18] = system: DU-145
[19] = system: SK-MEL-5
[20] = system: SK-MEL-2

Measured: GI50

COC(=O)/C=C1\CCCN1CCc1cc2c(cc1CC#N)OCO2
inactive: [1] 40.7 µM | [2] 42.5 µM | [3] 52.7 µM | [4] 31.4 µM | [5] 34.4 µM | [6] 51.3 µM | [7] > 100 µM | [8] > 100 µM | [9] > 100 µM | [10] 31.7 µM | [11] 16.5 µM | [12] 59.4 µM | [13] 49.4 µM | [14] 48.6 µM | [15] 32.9 µM | [16] 37 µM | [17] > 100 µM | [18] 80.4 µM | [19] 25.6 µM | [20] 38.4 µM

O=C(O)CC(Nc1ccccc1)C(=O)O (stereo not given)
inactive: [1] > 100 µM | [2] > 100 µM | [3] > 100 µM | [4] > 100 µM | [5] > 100 µM | [6] > 100 µM | [7] > 100 µM | [8] > 100 µM | [9] > 100 µM | [10] > 100 µM | [11] > 100 µM | [12] > 100 µM | [13] > 100 µM | [14] > 100 µM | [15] > 100 µM | [16] > 100 µM | [17] > 100 µM | [18] > 100 µM | [19] > 100 µM | [20] > 100 µM
